The results in this text go back to US20240165085A1, “ORAL FELINE FEED AND METHODS FOR CONTROLLING TICK INFESTATIONS IN A FELINE” (priority 2021, published 2024).

The test system of data set [1] is Dermacentor variabilis. Kind of data set: Example 3: efficacy of afoxolaner and fluralaner liquid formulations per os in cats against Dermacentor variabilis. It counts as in vivo. Particulars: treatment group 2, 0.075 mg/kg daily (Days 0-29), liquid formulation. From the text:
Efficacy of Various Formulations of Isoxazoline Administered per os, i.e. by mouth, to Cats for the Treatment and Control of Dermacentor variabilis.
Methods: A pool of 36 cats are to be preliminarily infested with ˜50 unfed adult D. variabilis ticks in order to produce cats that can suitably sustain a reliable infestation rate, defined as approximately 25% of attached ticks being live at the end of a 48-hour period. The 30 cats with the highest live attached tick counts are to be selected for inclusion in the study. The cats are to be randomly assigned to a single control group and 4 treatment groups with 6 cats per treatment group.
(§1) The cats are to be housed individually during the study period and are to be fed a commercial dry cat food ration with ad libitum access to water.
Each cat in a treatment group (test groups 2-5) is to receive by mouth, preferably in combination with feed, a liquid formulation of isoxazoline. The dosage is to be administered to the cats on each of days 0-29 according to TABLE 2.
Cats in the control group are not to receive isoxazoline or any other tick control treatment. Each cat in the treatment group is to be offered its daily ration (dry food) and the individual doses of liquid formulation are to be administered after the individual cat has eaten at least 25% of its total daily ration. […]

In data set [2] the test system is Dermacentor variabilis. The experiment in a line: Example 1: efficacy of isoxazoline per os in cats against Dermacentor variabilis (attached tick comb counts). In kind it is in vivo.
Text: Efficacy of Isoxazoline Administered per os, i.e. by mouth, to Cats for the Treatment and Control of Dermacentor variabilis.
Methods: A pool of 14 cats are to be preliminarily infested with ˜50 unfed adult D. variabilis ticks in order to produce cats that can suitably sustain a reliable infestation rate, defined as approximately 25% attached ticks being live at the end of a 48-hour period. The 12 cats with the highest live attached tick counts are to be selected for inclusion in the study. The cats are to be divided into a control group and a treatment group with 6 cats in each group.
as §1
(§2) Each cat in the treatment group is to receive by mouth, preferably in combination with feed, a liquid formulation of isoxazoline. The dosage of 1.125 mg/kg is to be administered to the cats on each of days 0-29.
Cats in the control group are not to receive isoxazoline or any other tick control treatment. Each cat in the treatment group is to be offered its daily ration (dry food) and the individual doses of liquid formulation are to be administered after the individual cat has eaten at least 25% of its total daily ration. After receiving the dose of isoxazoline, the cats are to be allowed to continue eating. This mimics incorporating the isoxazoline in feed. […]

Data set [3] in a line: Example 4: plasma concentration of isoxazoline in cats given medicated feed. In kind it is in vivo, cat. Particulars: medicated feed dosed at 1.5 mg/kg, five different feed formulations, Day 0 to Day 30. The protocol:
Plasma Concentration of Isoxazoline in Cats when Isoxazoline is Administered in a Medicated Feed Dosed at 1.5 mg/kg of the Cat's Weight.
Methods: A pool of 30 cats are to be assigned to 5 groups of 6 cats per group by weight to minimize variation between and within the groups. Each group will be given a different feed formulation containing isoxazoline and the blood level of isoxazoline over the one month period following the single daily dose will be determined.
(§3) The cats are to be housed individually during the study period and are to have ad libitum access to water.
There is to be an initial acclimation period of at least 4 days during which cats are to be transitioned from a standard certified commercial cat feed to an unmedicated version of the daily cat feed. During the acclimation period, the cats are to be allowed 15 minutes/day to consume the feed.
Each medicated feed formulation should be able to deliver approximately 14.1 g/kg of daily feed containing isoxazoline. The amount of medicated feed for each cat is to be determined according to the most recent body weight of the cat prior to the first day (Day 0) of the study. Each medicated feed is to be provided for 15 minutes daily from Day 0 up to and including Day 30. Any uneaten medicated feed remaining after each daily 15 minute timed offering period is to be removed, weighed and the amount recorded. […]

A short description of data set [4]: Example 5: plasma concentration of isoxazoline in cats given medicated daily feed. In kind it is in vivo, cat. The protocol: (§4) Each cat in a treatment group (Groups 2-4) is to receive a medicated daily feed from study days 0-29. Each medicated daily feed (Groups 2-4) is to be offered to the cats for 1 hour on each of days 0-29 according to test groups in TABLE 3.
Using the same study method as described above, blood is to be drawn at day 0 (day of the first administration of medicated feed) and days 2, 4, 7, 10, 14, 21 and 30 after the initial dose of isoxazoline is administered on day 0. The average concentration of isoxazoline in the blood for different dosage levels can then be determined.

The nature of data set [5]: Example 1: average plasma concentration of isoxazoline in cats, daily oral dosing. In kind it is in vivo, cat. The note with it: 1.125 mg/kg daily. The method, then:
as §2
Using the same study method as described above, blood is to be drawn at 72, 168, 336, 504, 720 and 888 hours after the initial dose of isoxazoline is administered. The average concentration of isoxazoline in the blood can then be determined.

Data set [6] relates to Dermacentor variabilis. Kind of data set: Example 6: efficacy of Mivorilaner in medicated feed in cats against Dermacentor variabilis (FIG. 1). It counts as in vivo. Particulars: days 0-29, within 16 days. The protocol: FIG. 1. A graph of the arithmetic mean efficacy for treatment Group 2 (stars) and Group 3 (horizontal hash). Percent efficacy=[AM fleas CONTROL−AM fleas TREATED]/AM fleas CONTROL. Efficacy measured at 2, 16, 27, 30, and 37 days after Initial Treatment, with either 0.75 mg of Mivorilaner/kg (Group 2) or 1.5 mg of Mivorilaner/kg (Group 3).
(§5) Efficacy of Isoxazoline when Isoxazoline is Administered in a Medicated Feed for the Treatment and Control of Dermacentor variabilis.
Methods: A pool of cats are to be preliminarily infested with ˜100 unfed adult C. felis fleas in order to produce cats that can suitably sustain a reliable infestation rate, defined as approximately 50% retention of live fleas at the end of a 48-hour period. The cats with the highest live flea counts are to be randomly assigned to a single control group (Group 1) and 2 medicated feed treatment groups with 4 cats per group. The cats in groups 2 and 3 will receive Mivorilaner.
as §3
Each cat in a treatment group (Groups 2 and 3) is to receive a medicated daily feed from study days 0-29 according to TABLE 4.
The cats are to be fasted overnight prior to each daily treatment. […]

The subject of data set [7] is Dermacentor variabilis. The experiment in a line: Example 5: efficacy of isoxazoline in medicated feed in cats against Dermacentor variabilis. Particulars: 1 mg/kg, days 0-29, by day 14. It counts as in vivo. The method, then: as §5
Methods: A pool of 24 cats are to be preliminarily infested with ˜50 unfed adult D. variabilis ticks in order to produce cats that can suitably sustain a reliable infestation rate, defined as approximately 25% of attached ticks being live at the end of a 48-hour period. The 18 cats with the highest live attached tick counts are to be randomly assigned to a single control group (Group 1) and 2 different medicated feed treatment groups (Groups 2 and 3) with 6 cats per group. The remaining 6 cats are to be assigned to a final medicated feed treatment group (Group 4).
as §3, §4
Cats in the control group are not to receive isoxazoline or any other tick control treatment. […]

In the case of `O=C(CNC(=O)c1ccc(C2=NOC(c3cc(Cl)cc(C(F)(F)F)c3)(C(F)(F)F)C2)c2ccccc12)NCC(F)(F)F` (centres unmarked) [Afoxolaner, 4-{5-[3-chloro-5-(trifluoromethyl)phenyl]-5-(trifluoromethyl)-4,5-dihydroisoxazol-3-yl}-N-{2-oxo-2-[(2,2,2-trifluoroethyl)amino]ethyl}naphthalene-1-carboxamide], the efficacy entry in the data set with Dermacentor variabilis [1] (by day 14) is reported as “greater than 80%”; in the data set on Dermacentor variabilis [1] (by day 21) it was “greater than 90%”.

Consider `O=C(CNC(=O)c1sc(C2=NO[C@@](c3cc(Cl)c(F)c(Cl)c3)(C(F)(F)F)C2)c2c1CCC2)NCC(F)F` [mivorilaner, 3-[(5S)-5-(3,5-dichloro-4-fluorophenyl)-5-(trifluoromethyl)-4,5-dihydroisoxazol-3-yl]-N-[2-[(2,2-difluoroethyl)amino]-2-oxoethyl]-5,6-dihydro-4H-cyclopenta[c]thiophene-1-carboxamide], for which the “reduction in attached tick counts over the control group” value in the data set with Dermacentor variabilis [2] (1.125 mg/kg by mouth daily days 0-29, within 7 days) is “at least 60%”; in the data set with Dermacentor variabilis [2] (1.125 mg/kg by mouth daily days 0-29, within 14 days), 90%. For the same molecule, in data set [3], the mean plasma concentrations entry was “consistent with those achieved in Examples 1 and 2”. Also, the “plasma concentrations relative to treatment groups 2 and 3” value in data set [4] (treatment group 4, 3 mg/kg daily, versus groups 2 and 3, 1 mg/kg daily) is reported as 2.5-4 times higher. The “plasma concentrations, comparison of feed formulations” value in data set [4] (treatment groups 2 and 3, 1 mg/kg daily, different feed formulations) is “consistent between treatment groups 2 and 3”. The average plasma concentration entry in data set [5] (day 3) is “about 1011 ng/mL”; in data set [5] (day 21), “about 4088”; in data set [5] (day 37, approximately 8 days after the final dose), “about 3025 ng/mL”. For the same molecule, the “efficacy (percent reduction in attached live and moribund tick counts)” value in the data set on Dermacentor variabilis [6] (treatment group 2, 0.75 mg/kg daily in wet cat food) is listed as 100%; with Dermacentor variabilis [6] (treatment group 3, 1.5 mg/kg daily in wet cat food), 100%. For the same molecule, the efficacy result in the data set on Dermacentor variabilis [7] (treatment group 2, medicated daily feed) is on record as “greater than 95%”; with Dermacentor variabilis [7] (treatment group 3, medicated daily feed), “greater than 95%”.
